Patent US20240366589A1, “NHE3-BINDING COMPOUNDS AND METHODS FOR INHIBITING PHOSPHATE TRANSPORT” (Ardelyx, Inc., priority 2013, published 2024)

Key:
[1] = target: T1, Human NHE3 (Homo sapiens, UniProt P48764); test: Cell-based NHE3 activity under prompt conditions (OK cells, BCECF pH recovery), human NHE3; settings: prompt conditions
T1 construct: expressed in transfected cells; host or cells: Opossum kidney (OK) cells (ATCC), electroporation
T1 sequence (P48764 26-834): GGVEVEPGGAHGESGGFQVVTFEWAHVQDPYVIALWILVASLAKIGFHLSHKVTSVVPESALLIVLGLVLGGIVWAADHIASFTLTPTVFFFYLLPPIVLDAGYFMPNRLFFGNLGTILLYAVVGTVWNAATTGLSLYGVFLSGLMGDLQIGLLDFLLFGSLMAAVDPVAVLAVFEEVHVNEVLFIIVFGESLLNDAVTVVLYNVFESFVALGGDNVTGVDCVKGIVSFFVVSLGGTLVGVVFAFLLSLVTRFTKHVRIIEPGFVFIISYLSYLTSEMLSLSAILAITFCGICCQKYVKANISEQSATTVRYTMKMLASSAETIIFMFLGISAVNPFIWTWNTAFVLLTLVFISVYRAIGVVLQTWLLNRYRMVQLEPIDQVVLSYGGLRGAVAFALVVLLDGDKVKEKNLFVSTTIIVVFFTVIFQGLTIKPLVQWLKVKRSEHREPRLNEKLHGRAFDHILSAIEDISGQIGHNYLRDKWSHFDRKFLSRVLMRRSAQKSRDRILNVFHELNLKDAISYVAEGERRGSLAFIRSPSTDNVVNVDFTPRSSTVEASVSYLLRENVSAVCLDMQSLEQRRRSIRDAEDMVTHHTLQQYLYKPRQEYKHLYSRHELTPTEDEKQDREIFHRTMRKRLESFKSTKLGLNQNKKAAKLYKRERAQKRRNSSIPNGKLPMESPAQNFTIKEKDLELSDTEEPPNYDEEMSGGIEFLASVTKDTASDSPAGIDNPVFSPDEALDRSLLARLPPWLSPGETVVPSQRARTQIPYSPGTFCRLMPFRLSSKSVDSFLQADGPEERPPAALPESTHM
In short: (§1)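 OK cells electroporated with rat or human NHE3 were loaded with 5 μM BCECF-AM in NH4Cl-HEPES (pH 7.4) for 30 min at room temperature, then acid-loaded 10 min in Na+-free choline-HEPES.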

[2] = system: absorption of sodium from the intestinal lumen; test: Fecal form score (FFS) 16 h after oral dose in rats; type: in vivo, rat; settings: oral gavage, 16 h post-dose, scale 1-5
In short: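 Eight-week-old Sprague-Dawley rats (n=6) dosed by oral gavage with compound or water vehicle between 4 and 5 PM, then housed in metabolic cages with food and water ad libitum. At 16 h, fecal form scored 1 (normal pellet) to 5 (liquid streams) by two observers; group mean reported.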

[3] = system: absorption of sodium from the intestinal lumen; test: Inhibition of intestinal sodium absorption: urinary sodium (uNa) 16 h after single oral dose in rats; type: in vivo, rat; settings: oral gavage, 16 h post-dose
In short: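 Eight-week-old Sprague-Dawley rats (n=6) given single oral gavage of compound or water vehicle in the late afternoon, then kept in metabolic cages with chow and water ad libitum. Urine collected over 16 h; sodium quantified by ion chromatography and expressed as % of vehicle mean, compared by one-way ANOVA with Dunnett's test.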

[4] = system: phosphorus and calcium levels in the urine of rats; test: Urinary excretion of phosphate and calcium in rats (16 h overnight urine); type: in vivo, rat; settings: rats, oral gavage, 16 h post-dose
[5] = target: T2, Rat NHE3 (Rattus norvegicus, UniProt P26433); test: Cell-based NHE3 activity under prompt conditions (OK cells, BCECF pH recovery), rat NHE3; settings: prompt conditions
T2 construct: expressed in transfected cells; host or cells: Opossum kidney (OK) cells (ATCC), electroporation
T2 sequence (P26433 29-831): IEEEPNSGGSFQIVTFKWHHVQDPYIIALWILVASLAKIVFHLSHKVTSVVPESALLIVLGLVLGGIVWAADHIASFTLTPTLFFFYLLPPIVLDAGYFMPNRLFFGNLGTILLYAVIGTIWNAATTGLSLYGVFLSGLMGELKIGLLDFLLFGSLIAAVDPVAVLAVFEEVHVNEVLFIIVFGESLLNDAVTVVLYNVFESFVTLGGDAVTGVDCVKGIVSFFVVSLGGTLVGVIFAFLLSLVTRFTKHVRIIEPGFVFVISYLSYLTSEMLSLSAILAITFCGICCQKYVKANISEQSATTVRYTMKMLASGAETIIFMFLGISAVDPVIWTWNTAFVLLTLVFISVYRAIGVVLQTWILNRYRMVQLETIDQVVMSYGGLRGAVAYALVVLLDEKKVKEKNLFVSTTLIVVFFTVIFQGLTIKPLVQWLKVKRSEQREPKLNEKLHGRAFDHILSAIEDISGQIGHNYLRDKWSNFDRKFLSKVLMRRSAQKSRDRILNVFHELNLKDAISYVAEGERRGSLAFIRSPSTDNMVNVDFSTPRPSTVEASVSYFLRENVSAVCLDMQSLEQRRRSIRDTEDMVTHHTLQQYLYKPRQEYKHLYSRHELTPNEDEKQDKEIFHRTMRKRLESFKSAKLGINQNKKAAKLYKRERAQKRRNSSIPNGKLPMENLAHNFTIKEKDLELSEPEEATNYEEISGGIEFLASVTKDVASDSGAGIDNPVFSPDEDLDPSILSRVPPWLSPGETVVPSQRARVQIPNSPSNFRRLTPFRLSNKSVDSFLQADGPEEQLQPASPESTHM
In short: as §1

| Prompt Human NHE3 pIC50 [1] | Prompt Rat NHE3 pIC50 [5] | IC50 ([5]; read-out: Prompt Rat NHE3 pIC50 (converted)) | SMILES | Fecal Form Score average ([2]; dose 3 mg/kg) | Urine Na % of control ([3]; dose 3 mg/kg) | Urine P % of control ([4]; dose 3 mg/kg) | Fecal Form Score average ([2]; dose 2 mg/kg) | Urine Na % of control ([3]; dose 2 mg/kg) | Urine P % of control ([4]; dose 2 mg/kg) | Fecal Form Score average ([2]; dose 10 mg/kg) | Urine Na % of control ([3]; dose 10 mg/kg) | Urine P % of control ([4]; dose 10 mg/kg) |
| --- | --- | --- | --- | --- | --- | --- | --- | --- | --- | --- | --- | --- |
| 6.90 | <5.00 |  | CN1Cc2c(Cl)cc(Cl)cc2[C@H](c2cccc(S(=O)(=O)NCCOCCOCCNC(=O)CCC(CCC(=O)NCCOCCOCCNS(=O)(=O)c3cccc([C@@H]4CN(C)Cc5c(Cl)cc(Cl)cc54)c3)(CCC(=O)NCCOCCOCCNS(=O)(=O)c3cccc([C@@H]4CN(C)Cc5c(Cl)cc(Cl)cc54)c3)NC(=O)NC(CO)(CO)CO)c2)C1 [compound 158] | 2 | 32% | 64% |  |  |  |  |  |  |
| 7.30 | 7.20 |  | C[C@@H](O)[C@H](NC(=O)NC(CCC(=O)NCCOCCOCCNS(=O)(=O)c1cccc([C@@H]2CN(C)Cc3c(Cl)cc(Cl)cc32)c1)(CCC(=O)NCCOCCOCCNS(=O)(=O)c1cccc([C@@H]2CN(C)Cc3c(Cl)cc(Cl)cc32)c1)CCC(=O)NCCOCCOCCNS(=O)(=O)c1cccc([C@@H]2CN(C)Cc3c(Cl)cc(Cl)cc32)c1)C(N)=O [compound 159] | 2 | 27% | 55% |  |  |  |  |  |  |
| 7.60 | 9.20 |  | CN1Cc2c(Cl)cc(Cl)cc2[C@H](c2cccc(S(=O)(=O)NCCOCCOCCNC(=O)NCCCC(CCCNC(=O)NCCOCCOCCNS(=O)(=O)c3cccc([C@@H]4CN(C)Cc5c(Cl)cc(Cl)cc54)c3)(CCCNC(=O)NCCOCCOCCNS(=O)(=O)c3cccc([C@@H]4CN(C)Cc5c(Cl)cc(Cl)cc54)c3)NC(=O)COCC(=O)O)c2)C1 [compound 161] | 2 | 82% | 60% |  |  |  |  |  |  |
| 6.60 | 7.30 |  | CN1Cc2c(Cl)cc(Cl)cc2[C@H](c2cccc(S(=O)(=O)NCCOCCOCCNC(=O)CCC(CCCNC(=O)NCCOCCOCCNS(=O)(=O)c3cccc([C@@H]4CN(C)Cc5c(Cl)cc(Cl)cc54)c3)(CCC(=O)NCCOCCOCCNS(=O)(=O)c3cccc([C@@H]4CN(C)Cc5c(Cl)cc(Cl)cc54)c3)NC(=O)NCP(=O)(O)O)c2)C1 [compound 162] |  |  |  | 2 | 130% | 50% |  |  |  |
| 7.60 | 7.90 |  | CN1Cc2c(Cl)cc(Cl)cc2[C@H](c2cccc(S(=O)(=O)NCCOCCOCCNC(=O)CCC(CCC(=O)NCCOCCOCCNS(=O)(=O)c3cccc([C@@H]4CN(C)Cc5c(Cl)cc(Cl)cc54)c3)(CCC(=O)NCCOCCOCCNS(=O)(=O)c3cccc([C@@H]4CN(C)Cc5c(Cl)cc(Cl)cc54)c3)NC(=O)N[C@@H](CO)C(=O)O)c2)C1 [compound 163] | 2 | 27% | 48% |  |  |  |  |  |  |
| 8.13 | 7.53 |  | CN1Cc2c(Cl)cc(Cl)cc2[C@H](c2cccc(S(=O)(=O)NCCOCCOCCNC(=O)CCC(CCC(=O)NCCOCCOCCNS(=O)(=O)c3cccc([C@@H]4CN(C)Cc5c(Cl)cc(Cl)cc54)c3)(CCC(=O)NCCOCCOCCNS(=O)(=O)c3cccc([C@@H]4CN(C)Cc5c(Cl)cc(Cl)cc54)c3)NC(=O)NCC(=O)O)c2)C1 [compound 164] | 3 | 18% | 63% |  |  |  |  |  |  |
| 8.20 | <5.00 |  | O=C(NCCCCNC(=O)NCCOCCOCCNS(=O)(=O)c1ccc(O[C@H]2c3cc(Cl)cc(F)c3C[C@@H]2N2CC[C@@H](O)C2)cc1)NCCOCCOCCNS(=O)(=O)c1ccc(O[C@H]2c3cc(Cl)cc(F)c3C[C@@H]2N2CC[C@@H](O)C2)cc1 [compound 165] |  |  |  |  |  |  | 1 | 104% | 68% |
| 8.40 | <5.00 |  | CN(C)[C@H]1Cc2c(F)cc(Cl)cc2[C@@H]1Oc1ccc(S(=O)(=O)NCCOCCOCCNC(=O)NCCCCNC(=O)NCCOCCOCCNS(=O)(=O)c2ccc(O[C@H]3c4cc(Cl)cc(F)c4C[C@@H]3N(C)C)cc2)cc1 [compound 166] |  |  |  |  |  |  | 1 | 111% | 43% |
| 8.37 | 5.80 |  | CN1Cc2c(Cl)cc(Cl)cc2[C@H](c2cccc(S(=O)(=O)NCCOCCOCCNC(=O)NCCCC(CCCNC(=O)NCCOCCOCCNS(=O)(=O)c3cccc([C@@H]4CN(C)Cc5c(Cl)cc(Cl)cc54)c3)(CCCNC(=O)NCCOCCOCCNS(=O)(=O)c3cccc([C@@H]4CN(C)Cc5c(Cl)cc(Cl)cc54)c3)NC(=O)NC[C@H](O)[C@@H](O)[C@H](O)[C@H](O)CO)c2)C1 [compound 167] | 2 | 36% | 99% |  |  |  |  |  |  |
| 8.13 | 7.35 |  | CN1Cc2c(Cl)cc(Cl)cc2[C@H](c2cccc(S(=O)(=O)NCCOCCOCCNC(=O)NCCC(N)(CCNC(=O)NCCOCCOCCNS(=O)(=O)c3cccc([C@@H]4CN(C)Cc5c(Cl)cc(Cl)cc54)c3)CCNC(=O)NCCOCCOCCNS(=O)(=O)c3cccc([C@@H]4CN(C)Cc5c(Cl)cc(Cl)cc54)c3)c2)C1 [compound 168] | 1 | 56% | 50% |  |  |  |  |  |  |
| 6.20 | 6.50 |  | CC(=O)C(CCC(=O)NCCOCCOCCNS(=O)(=O)c1cccc([C@@H]2CN(C)Cc3c(Cl)cc(Cl)cc32)c1)(CCC(=O)NCCOCCOCCNS(=O)(=O)c1cccc([C@@H]2CN(C)Cc3c(Cl)cc(Cl)cc32)c1)CCC(=O)NCCOCCOCCNS(=O)(=O)c1cccc([C@@H]2CN(C)Cc3c(Cl)cc(Cl)cc32)c1 [compound 169] | 2 | 42% | 64% |  |  |  |  |  |  |
| 7.20 |  | 79.4 nM | CN1Cc2c(Cl)cc(Cl)cc2[C@H](c2cccc(S(=O)(=O)NCCOCCOCCNCCCC(CCC(=O)NCCOCCOCCNS(=O)(=O)c3cccc([C@@H]4CN(C)Cc5c(Cl)cc(Cl)cc54)c3)(CCC(=O)NCCOCCOCCNS(=O)(=O)c3cccc([C@@H]4CN(C)Cc5c(Cl)cc(Cl)cc54)c3)NC(=O)N3CCN(CCOCCO)CC3)c2)C1 [compound 170] | 2 | 31% | 34% |  |  |  |  |  |  |
| 7.10 | 8.20 |  | CN1Cc2c(Cl)cc(Cl)cc2[C@H](c2cccc(S(=O)(=O)NCCOCCOCCNC(=O)NCCC(CCNC(=O)NCCOCCOCCNS(=O)(=O)c3cccc([C@@H]4CN(C)Cc5c(Cl)cc(Cl)cc54)c3)(CCNC(=O)NCCOCCOCCNS(=O)(=O)c3cccc([C@@H]4CN(C)Cc5c(Cl)cc(Cl)cc54)c3)NC(=O)COCC(=O)O)c2)C1 [compound 172] | 2 | 26% | 42% |  |  |  |  |  |  |
| 8.53 | 8.60 |  | CN(C)[C@H]1Cc2c(Cl)cc(Cl)cc2[C@@H]1Oc1ccc(S(=O)(=O)NCCOCCOCCNC(=O)CCC(C)(N)CCC(=O)NCCOCCOCCNS(=O)(=O)c2ccc(O[C@H]3c4cc(Cl)cc(Cl)c4C[C@@H]3N(C)C)cc2)cc1 [compound 174] | 1 | 37% | 55% |  |  |  | 1 | 49% | 61% |
| 7.40 | 7.80 |  | CN1Cc2c(Cl)cc(Cl)cc2[C@H](c2cccc(S(=O)(=O)NCCOCCOCCN(C)C(=O)CCC(N)(CCC(=O)N(C)CCOCCOCCNS(=O)(=O)c3cccc([C@@H]4CN(C)Cc5c(Cl)cc(Cl)cc54)c3)CCC(=O)N(C)CCOCCOCCNS(=O)(=O)c3cccc([C@@H]4CN(C)Cc5c(Cl)cc(Cl)cc54)c3)c2)C1 [compound 175] | 1 | 102% | 48% |  |  |  |  |  |  |
